The record followed here is patent publication US10731187B2, “Recombinant strain producing O-aminobenzoate and fermentative production of aniline from renewable resources via 2-aminobenzoic acid” (Covestro Deutschland AG, priority 2014, dated 2020).

The series has as its system Corynebacterium glutamicum. The series is described as follows: Aminobenzoate stability in fermenter culture supernatants by HPLC-DAD. The settings on record: HPLC-DAD 254 nm. From the text:
It had to be excluded that the aminobenzoates were degraded by the organism and therefor the growth is restored after the prolonged lag-phase. To investigate the aminobenzoate stability in the fermenters culture supernatant samples were collected during the fermentation and analyzed by HPLC-DAD (254 nm) (see FIG. 23 and Example 3).
In a further experiment the concentration of oAB was increased to investigate the effect on the C. glutamicum strain. The four fermenters were hereto supplemented with 0 g/L, 15 g/L, 35 g/L and 80 g/L of oAB. […] The rest of the cultivation conditions was kept as described above. […] Cultures supplemented with 15 g/L oAB have shown an extensive lag-phase over 34-48 h before growth was recovered and cells entered the exponential phase (see FIG. 24). […]
An Agilent 1100 series HPLC-DAD system (with diode array detector; Agilent Technologies, Santa Clara (USA)) was used to quantify oAB concentrations in culture supernatants. […] The following gradient with a flow rate of 0.5 mL/min was applied: 0-1 min, 2% B; 1-2 min, 2-10% B; 2-12 min, 10-70% B; 12-23 min, 70-90% B; 23-25 min, 90-98% B, 25-27 min, 98% B; 27-27.5 min, 98%-2% B; 27.5-30 min, 2% B. The oAB concentration was determined from the signal integration at 254 nm (retention time: 18.9 min) using an external calibration curve.

Turning to `Nc1ccccc1C(=O)O` [oAB, 2-aminobenzoic acid], the “degradation during cultivation / fermentation” value is listed as “excluded”.
